Experimental data taken from PubChem BioAssay (NCI).
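Growth conditions: 96-well plates. Treatment: test compound, 48 hours, 5 concentrations. Analysis: linear interpolation between bracketing concentrations; unreached endpoints set to highest concentration. The concentration for 50% growth inhibition is given as GI50. The concentration for full growth arrest is given as TGI.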

Experiments:
Assay in all cases: NCI anticancer screen, dose series, 48 h
EKVX NSCLC = test system: EKVX NSCLC
MDA-MB-231 breast = test system: MDA-MB-231 breast
COLO 205 colon = test system: COLO 205 colon
U251 CNS = test system: U251 CNS
SNB-75 CNS = test system: SNB-75 CNS
SF-539 CNS = test system: SF-539 CNS
HS 578T breast = test system: HS 578T breast
SR leukemia = test system: SR leukemia
OVCAR-5 ovarian = test system: OVCAR-5 ovarian
NCI/ADR-RES ovarian = test system: NCI/ADR-RES ovarian
LOX IMVI melanoma = test system: LOX IMVI melanoma
UO-31 renal = test system: UO-31 renal
HCT-15 colon = test system: HCT-15 colon
CAKI-1 renal = test system: CAKI-1 renal
OVCAR-8 ovarian = test system: OVCAR-8 ovarian
UACC-257 melanoma = test system: UACC-257 melanoma
MALME-3M melanoma = test system: MALME-3M melanoma
A498 renal = test system: A498 renal
SW-620 colon = test system: SW-620 colon
MOLT-4 leukemia = test system: MOLT-4 leukemia
HT29 colon = test system: HT29 colon
TK-10 renal = test system: TK-10 renal
MCF7 breast = test system: MCF7 breast
SF-295 CNS = test system: SF-295 CNS
NCI-H460 lung = test system: NCI-H460 lung
SK-OV-3 ovarian = test system: SK-OV-3 ovarian
OVCAR-3 ovarian = test system: OVCAR-3 ovarian
IGROV1 ovarian = test system: IGROV1 ovarian
M14 melanoma = test system: M14 melanoma
HCT-116 colon = test system: HCT-116 colon
SK-MEL-2 melanoma = test system: SK-MEL-2 melanoma
SF-268 CNS = test system: SF-268 CNS
SNB-19 CNS = test system: SNB-19 CNS
HOP-62 NSCLC = test system: HOP-62 NSCLC
HL-60(TB) leukemia = test system: HL-60(TB) leukemia
HCC-2998 colon = test system: HCC-2998 colon
NCI-H522 lung = test system: NCI-H522 lung
KM12 colon = test system: KM12 colon
T-47D breast = test system: T-47D breast
ACHN renal = test system: ACHN renal
BT-549 breast = test system: BT-549 breast
CCRF-CEM leukemia = test system: CCRF-CEM leukemia
MDA-MB-468 breast = test system: MDA-MB-468 breast
SN12C renal = test system: SN12C renal
SK-MEL-28 melanoma = test system: SK-MEL-28 melanoma
A549 NSCLC = test system: A549 NSCLC
786-0 renal = test system: 786-0 renal
HOP-92 NSCLC = test system: HOP-92 NSCLC
UACC-62 melanoma = test system: UACC-62 melanoma
MDA-MB-435 = test system: MDA-MB-435
K-562 leukemia = test system: K-562 leukemia
OVCAR-4 ovarian = test system: OVCAR-4 ovarian
NCI-H23 lung = test system: NCI-H23 lung
SK-MEL-5 melanoma = test system: SK-MEL-5 melanoma
DU-145 prostate = test system: DU-145 prostate
RXF 393 renal = test system: RXF 393 renal
PC-3 prostate = test system: PC-3 prostate
NCI-H226 lung = test system: NCI-H226 lung

## O=C(NCCCCC(c1ccc(F)cc1)c1ccc(F)cc1)Nc1ccc([N+](=O)[O-])c(C(F)(F)F)c1
EKVX NSCLC
  GI50: 2.3 µM
  TGI: 8.53 µM
MDA-MB-231 breast
  GI50: 1.82 µM
  TGI: 3.72 µM
COLO 205 colon
  GI50: 1.73 µM
  TGI: 3.24 µM
U251 CNS
  GI50: 2.2 µM
  TGI: 5.98 µM
SNB-75 CNS
  GI50: 1.65 µM
  TGI: 7.64 µM
SF-539 CNS
  GI50: 1.92 µM
  TGI: 4.01 µM
HS 578T breast
  GI50: 2.22 µM
  TGI: 6.22 µM
SR leukemia
  GI50: 2.97 µM
  TGI: > 100 µM
OVCAR-5 ovarian
  GI50: 2.28 µM
  TGI: 7.89 µM
NCI/ADR-RES ovarian
  GI50: 2.36 µM
  TGI: 8.68 µM
LOX IMVI melanoma
  GI50: 1.69 µM
  TGI: 3.37 µM
UO-31 renal
  GI50: 1.82 µM
  TGI: 7.43 µM
HCT-15 colon
  GI50: 1.8 µM
  TGI: 6.63 µM
CAKI-1 renal
  GI50: 2.07 µM
  TGI: 6.5 µM
OVCAR-8 ovarian
  GI50: 3.24 µM
  TGI: 16 µM
UACC-257 melanoma
  GI50: 2.48 µM
  TGI: 7.97 µM
MALME-3M melanoma
  GI50: 1.84 µM
  TGI: 4.64 µM
A498 renal
  GI50: 1.84 µM
  TGI: 5.51 µM
SW-620 colon
  GI50: 2.26 µM
  TGI: 10.9 µM
MOLT-4 leukemia
  GI50: 2.81 µM
  TGI: > 100 µM
HT29 colon
  GI50: 3.22 µM
  TGI: 13.4 µM
TK-10 renal
  GI50: 2.94 µM
  TGI: 10.9 µM
MCF7 breast
  GI50: 2.14 µM
  TGI: 10.1 µM
SF-295 CNS
  GI50: 0.972 µM
  TGI: 3.73 µM
NCI-H460 lung
  GI50: 1.61 µM
  TGI: 5.54 µM
SK-OV-3 ovarian
  GI50: 2.26 µM
  TGI: 6.05 µM
OVCAR-3 ovarian
  GI50: 1.52 µM
  TGI: 5.31 µM
IGROV1 ovarian
  GI50: 2.71 µM
  TGI: 12.5 µM
M14 melanoma
  GI50: 2.08 µM
  TGI: 6.63 µM
HCT-116 colon
  GI50: 0.521 µM
  TGI: 2.81 µM
SK-MEL-2 melanoma
  GI50: 1.92 µM
  TGI: 4.07 µM
SF-268 CNS
  GI50: 2.92 µM
  TGI: 12.4 µM
SNB-19 CNS
  GI50: 2.91 µM
  TGI: 16.1 µM
HOP-62 NSCLC
  GI50: 1.99 µM
  TGI: 4.62 µM
HL-60(TB) leukemia
  GI50: 3.19 µM
  TGI: > 100 µM
HCC-2998 colon
  GI50: 2.61 µM
  TGI: 11.5 µM
NCI-H522 lung
  GI50: 1.74 µM
  TGI: 5.17 µM
KM12 colon
  GI50: 2.07 µM
  TGI: 7.77 µM
T-47D breast
  GI50: 1.85 µM
  TGI: 6.93 µM
ACHN renal
  GI50: 1.63 µM
  TGI: 6.81 µM
BT-549 breast
  GI50: 1.86 µM
  TGI: 4.23 µM
CCRF-CEM leukemia
  GI50: 0.674 µM
  TGI: 8.27 µM
MDA-MB-468 breast
  GI50: 0.559 µM
  TGI: 3.08 µM
SN12C renal
  GI50: 1.98 µM
  TGI: 6.52 µM
SK-MEL-28 melanoma
  GI50: 3.03 µM
  TGI: 11.5 µM
A549 NSCLC
  GI50: 3.19 µM
  TGI: 12.6 µM
786-0 renal
  GI50: 2.26 µM
  TGI: 8.86 µM
HOP-92 NSCLC
  GI50: 1.03 µM
  TGI: 5.11 µM
UACC-62 melanoma
  GI50: 1.33 µM
  TGI: 2.84 µM
MDA-MB-435
  GI50: 2.15 µM
  TGI: 7.58 µM
K-562 leukemia
  GI50: 0.561 µM
  TGI: > 100 µM
OVCAR-4 ovarian
  GI50: 2.81 µM
  TGI: 15.8 µM
NCI-H23 lung
  GI50: 2.27 µM
  TGI: 8.51 µM
SK-MEL-5 melanoma
  GI50: 1.59 µM
  TGI: 2.97 µM
DU-145 prostate
  GI50: 3.53 µM
  TGI: 15.7 µM
RXF 393 renal
  GI50: 2.23 µM
  TGI: 6.25 µM
PC-3 prostate
  GI50: 0.415 µM
  TGI: 8.72 µM
NCI-H226 lung
  GI50: 2.16 µM
  TGI: 6.55 µM
